# Laboratory results published in patent publication US20200392223A1, “IL-17A ACTIVITY INHIBITOR AND USE THEREOF” (TOKAI UNIVERSITY EDUCATIONAL SYSTEM, priority 2018, published 2020).
# Columns and labels:
# [1] = test system: rat intervertebral disc degeneration model; assay: Rat intervertebral disc degeneration model; assay type: in vivo; settings: 1 mg in 10 μL DMSO injected into degenerated disc on day 14, evaluated day 28
# Procedure: A 23G needle was inserted into a caudal intervertebral disc of a 11-weeks-old male SD rat (weight: 300 to 350 g) by about 5 mm, rotated at 360°, and left for 30 seconds to cause intervertebral disc degeneration (day 0). 14 days (day 14) after being subjected to the intervertebral disc degeneration, 10 μL of a DMSO solution containing 1 mg of the compound (3) (database registration number: STK630921) was injected to the degenerated intervertebral disc (STK group=compound (3) treated group). […]
# 28 days (day 28) after being subjected to the intervertebral disc degeneration, the caudal vertebrae of the rats in the STK group, the Sham group, the degeneration group, and the normal group were collected, fixed in 4% PFA, and decalcified, thereby preparing sample sections. […] In each sample subjected to the immunostaining, the number of IL-6 positive cells in spots of the same area arbitrarily set at 3 or 4 locations in the intervertebral disc tissue was counted with the same magnification field of view, and an expression rate of the IL-6 positive cells with respect to a total number of cells in the same spot was calculated.
# [2] = test system: rat nucleus pulposus (NP) cell; assay: mRNA expression (real time RT-PCR) in rat NP cells treated with IL-17A under 1% oxygen; assay type: cell-based; settings: 24 hours
# Procedure: Nucleus pulposus cells were separated from a Sprague Dawley rat aged 11 weeks according to a method in Risbud et al (Journal of cellular biochemistry 98, 152-159, 2006; doi:10.1002/jcb.20765). In short, lumbar and coccygeal intervertebral discs of a deeply anesthetized rat were dissected under an aseptic condition, gel-like nucleus pulposus was separated from intervertebral disc annulus fibrosus (AF), the nucleus pulposus was minced and pipetted, and then the nucleus pulposus was cultured in a Dulbecco's Modified Eagle Medium (DMEM) in which 20% FBS and antibiotics were added at 20% O2, 5% CO2, and 37° C. for about 1 to 2 weeks, and then was cultured in DMEM in which 10% FBS and antibiotics were added for about 1 to 2 weeks.
# The cultured rat nucleus pulposus cells were treated with 20 or 50 ng/mL of recombinant mouse IL-17A (Pepro Tech Inc., USA, #210-17) for 24 hours, expression levels of mRNAs of IL-6, COX-2, mPGES1, MMP-3, and MMP-13 were determined by real time RT-PCR according to the following procedure. Total RNA was extracted from the nucleus pulposus cells using an RNAeasy mini-column (Qiagen, Germany). Before elution from the column, RNA was treated with RNase-Free DNase I (Qiagen, Germany). The purified DNA-free RNA was transformed into cDNA using a High Capacity cDNA Reverse Transcription Kit (Applied Biosystems, USA). Template cDNA and a primer specific to each gene were added to Power SYBR Green master mix (Applied Biosystems) and an expression level of mRNA of each gene was determined using Step One Plus Real-time PCR System (Applied Biosystems). The expression level was normalized to β actin. It was verified by melting curve analysis that RT-PCR was specific and a primer dimer was not formed. […]
# In (B) and (C), among the compounds of the present invention, only the compound (3) which is considered from the results of (A) described below to have the highest effect on IL-6 and COX-2 was used.
# A p38 phosphorylation inhibitor “SB203580” with a concentration of 10 μM, a JNK phosphorylation inhibitor “SP600125” with a concentration of 10 μM, or an ERK phosphorylation inhibitor “PD98059” with a concentration of 10 μM was administered to rat NP cells together with recombinant mouse IL-17A with a concentration of 50 ng/ml, or alternatively, these inhibitors were not administered, and the cells were cultured under a 1% oxygen condition for 24 hours, and an expression level of mRNA of each of COX-2 and IL-6 was determined by real time RT-PCR according to the same procedure as that of [Reference Example 2]. […]
# [3] = test system: mouse psoriasis skin model; assay: Mouse psoriasis skin model (imiquimod cream); assay type: in vivo
# Procedure: About 1×1.5 cm of back of 10-week-old male BJ6J mouse was shaved, and imiquimod (IMQ, a drug causing psoriasis-like dermatitis in a mouse) cream was applied every day from day 1 to day 4. From the 5th day (day 5) after the first IMQ cream application, 6 to 8 hours after the application of the IMQ cream, a DMSO solution containing 1 mg of the compound (3) (database registration name: STK630921) was applied (STK group=compound (3) treated group). The same IMQ cream and the solution of the compound (3) were applied every day from the 6th day (day 6) to the 9th day (day 9). […]
# On the 10th day (day 10), skin of the mice in each of the STK group, the Sham group, the IMQ group, and the normal group was collected, and one sample obtained by hematoxylin eosin (HE) staining and one sample obtained by immunofluorescence staining using an anti-CXCL1 antibody were prepared per mouse. In the HE stained samples, for each sample, a thickness of an epidermis layer was measured at two or more locations with the same magnification field of view, and an average value was statistically analyzed (significant difference: p<0.05, n=3).
# p38 = assay: Phosphorylation of MAPK factors (western blotting) in rat NP cells treated with IL-17A; assay type: cell-based; settings: 50 μg/ml + IL-17A 50 ng/ml, 1% oxygen
# Procedure: In rat nucleus pulposus cells subjected to treatment for 24 hours in 50 ng/mL of IL-17A in which the most remarkable increases of IL-6 and COX-2 were observed, an expression level of a protein of each of IL-6 and COX-2, and β actin used as a control was determined by western blotting according to the following procedure. The nucleus pulposus cells were placed on ice and then washed with ice-cold PBS. In order to prepare total cell proteins, the cells were lysed with a lysis buffer containing 10 mM Tris-HCl (pH 7.6), 50 mM NaCl, 5 mM EDTA, 1% Nonidet P-40, a complete protease inhibitor cocktail (Roche AG, USA), 1 mM NaF, and 1 mM Na3VO4. The proteins were fractionated by SDS-PAGE and transferred onto Immobilon-P polyvinylidene difluoride membrane (Millipore Corporation, USA). […] Western blotting data were quantified by densitometric scanning of a film using Macintosh computer software “CS Analyzer” (ATTO Corporation, Japan). […]
# It is reported that IL-17A is likely to be involved in the expression of COX-2 through a MAPK pathway. Involvement of IL-17A in MAPK factors (p38, JNK, and ERK) with respect to the expression of each of COX-2 and IL-6, and influence of the compound (1) of the present invention on these MAPK factors were evaluated by the following method. […]
# [4] = compound 50 μg/ml + IL-17A 50 ng/ml, vs IL-17A only
# [5] = inhibitor 10 μM + IL-17A 50 ng/ml
smiles,measurement,setting,value
CC(NC(=O)Cc1nnc(O)c2ccccc12)C(=O)NCC1CCC(C(=O)O)CC1 (centres unmarked) [(3)],expression rate of the IL-6 positive cells,[1],significantly reduced
same,expression level of mRNA of COX-2,[2]; [4],remarkably reduced
same,expression level of mRNA of IL-6,[2]; [4],remarkably reduced
same,expression level of mRNA of MMP-3,[2]; [4],significantly reduced
same,expression level of mRNA of MMP-13,[2]; [4],significantly reduced
same,expression level of mRNA of mPGES1,[2]; [4],significantly reduced
same,thickness of the epidermis layer,"[3]; DMSO solution containing 1 mg applied day 5 to day 9, skin collected day 10, HE staining",significantly reduced
same,expression of CXCL1,"[3]; DMSO solution containing 1 mg applied day 5 to day 9, skin collected day 10, immunofluorescence area",significantly reduced
C=C(C)COc1ccc2c(C)c(CC(=O)N(C)C[C@H](O)[C@H](O)[C@H](O)[C@H](O)CO)c(=O)oc2c1C [(11)],expression level of mRNA of COX-2,[2]; [4],significantly reduced
same,expression level of mRNA of IL-6,[2]; [4],significantly reduced
same,expression level of mRNA of MMP-3,[2]; [4],significantly reduced
same,expression level of mRNA of MMP-13,[2]; [4],significantly reduced
same,expression level of mRNA of mPGES1,[2]; [4],significantly reduced
"C[S+]([O-])c1ccc(-c2nc(-c3ccncc3)c(-c3ccc(F)cc3)[nH]2)cc1 (centres unmarked) [SB, SB203580, reference compound]",expression level of mRNA of COX-2,[2]; [5],significantly suppressed
same,expression level of mRNA of IL-6,[2]; [5],significantly suppressed
"COc1cccc(-c2cc(=O)c3ccccc3o2)c1N [PD, PD98059, reference compound]",expression level of mRNA of COX-2,[2]; [5],significantly suppressed
same,expression level of mRNA of IL-6,[2]; [5],significantly suppressed
C[C@H](NC(=O)Cc1nnc(O)c2ccccc12)C(=O)NCC1CCC(C(=O)O)CC1 (some centres unmarked) [(1)],phosphorylation of p38,p38; 15 minutes,reduced
same,phosphorylation of p38,"p38; 30 minutes, vs IL-17A single administration group",significant reduction
same,expression level of mRNA of COX-2,[2]; [4],excellent in the action
COc1ccc(C[C@@]2(C)NC(=O)N(CC(=O)Nc3ccc(N4CCCC4=O)cc3)C2=O)cc1OC [(5)],expression level of mRNA of COX-2,[2]; [4],significantly reduced
same,expression level of mRNA of IL-6,[2]; [4],significantly reduced
same,expression level of mRNA of MMP-3,[2]; [4],significantly reduced
same,expression level of mRNA of MMP-13,[2]; [4],significantly reduced
same,expression level of mRNA of mPGES1,[2]; [4],significantly reduced
CC(C)NC(=O)CCCCn1c(=O)c2ccccc2n(CC(=O)Nc2ccc3c(c2)OCO3)c1=O [(9)],expression level of mRNA of IL-6,[2]; [4],significantly reduced
